Test results published in DBAASP.
Converted amounts (≈) assume the structure as drawn. “And” between values parts separate entries of the source, which are not always exact repeats. Equal entries are not always repeated.

Columns and labels:
Assay in all cases: ≥ marks a high value that may be exact or a test limit, other limits are often not marked, values filed in µg/mL are converted to µM
Trichoderma viride = system: Trichoderma viride
Neurospora crassa = system: Neurospora crassa
Fusarium haematococcum = system: Fusarium haematococcum
Fusarium culmorum = system: Fusarium culmorum
Botrytis cinerea = system: Botrytis cinerea
[1] = system: Trichophyton mentagrophytes
Beauveria bassiana = system: Beauveria bassiana
Fusarium oxysporum = system: Fusarium oxysporum
Aspergillus fumigatus = system: Aspergillus fumigatus
Alternaria brassicicola = system: Alternaria brassicicola
[2] = system: Staphylococcus aureus V4180
[3] = system: Staphylococcus aureus 145/08
[4] = system: Escherichia coli ATCC 25726
[5] = system: Escherichia coli ATCC 25922
[6] = system: Candida albicans ATCC 90028
[7] = system: Staphylococcus aureus 274/08
[8] = system: Staphylococcus aureus NCTC 8325
[9] = system: Staphylococcus aureus T4/6
[10] = system: Acinetobacter baumannii I NM8
[11] = system: Klebsiella pneumoniae ATCC 700603
[12] = system: Pseudomonas aeruginosa ATCC 27853
[13] = system: Staphylococcus aureus S908
[14] = system: Staphylococcus aureus 127/08
[15] = system: Staphylococcus aureus ATCC 25923
[16] = system: Staphylococcus aureus Cowan 1
Candida albicans = system: Candida albicans
Bacillus megaterium Bm11 = system: Bacillus megaterium Bm11
[17] = system: Serratia marcescens ATCC 8100
Cryptococcus neoformans = system: Cryptococcus neoformans
Escherichia coli D21 = system: Escherichia coli D21
[18] = system: Escherichia coli O18:K1:H7 Bort
[19] = system: Bacillus subtilis ATCC 6633
[20] = system: Escherichia coli ATCC 10536
Serratia marcescens = system: Serratia marcescens
Streptococcus agalactiae = system: Streptococcus agalactiae
[21] = system: Staphylococcus aureus ATCC 9144
Escherichia coli ML-35 = system: Escherichia coli ML-35
Staphylococcus aureus = system: Staphylococcus aureus
[22] = system: Escherichia coli DH5alpha
Enterococcus faecium = system: Enterococcus faecium
[23] = system: Staphylococcus epidermidis ATCC 12228
[24] = system: Salmonella enterica subsp. enterica serovar Typhimurium ATCC 14028

CC[C@H](C)[C@H](NC(=O)[C@H](Cc1cnc[nH]1)NC(=O)[C@H](CCC(=O)O)NC(=O)CNC(=O)[C@H](Cc1cnc[nH]1)NC(=O)[C@H](CC(N)=O)NC(=O)[C@H](Cc1ccccc1)NC(=O)[C@@H](NC(=O)[C@H](CCCCN)NC(=O)[C@@H](NC(=O)[C@H](CCC(N)=O)NC(=O)[C@@H](NC(=O)[C@H](Cc1cnc[nH]1)NC(=O)CNC(=O)[C@H](Cc1ccccc1)NC(=O)[C@H](CC(N)=O)NC(=O)[C@@H]1CCCN1C(=O)[C@H](CC(C)C)NC(=O)[C@H](CC(=O)O)NC(=O)[C@H](CCC(=O)O)NC(=O)[C@@H](N)Cc1ccccc1)[C@@H](C)CC)C(C)C)C(C)C)C(=O)N[C@@H](Cc1cnc[nH]1)C(=O)N[C@@H](Cc1cnc[nH]1)C(=O)O [FEDLPNFGHIQVKVFNHGEHIHH] was tested. Which MIC (Trichoderma viride) did it give?
Its MIC is 6.25 µM (≈ 17.2 µg/mL).

And the MIC (Neurospora crassa)?
The MIC was no less than 50 µM.

What about the MIC (Fusarium haematococcum) of the same compound?
Its MIC is 6.25 µM (≈ 17.2 µg/mL).

And the MIC (Fusarium culmorum)?
The MIC was 12.5 µM (≈ 34.4 µg/mL).

And the MIC (Botrytis cinerea)?
The MIC was no less than 100 µM.

And the MIC [1]?
The MIC was no less than 100 µM.

And the MIC (Beauveria bassiana)?
The MIC was no less than 100 µM.

And the MIC (Fusarium oxysporum)?
The MIC was 12.5 µM (≈ 34.4 µg/mL).

And the MIC (Aspergillus fumigatus)?
Its MIC is no less than 100 µM.

And the MIC (Alternaria brassicicola)?
Its MIC is 6.25 µM (≈ 17.2 µg/mL).

How did the MIC [2] turn out when CC(C)C[C@H](NC(=O)[C@H](CC(C)C)NC(=O)[C@H](CC(N)=O)NC(=O)[C@H](CO)NC(=O)CNC(=O)[C@@H](NC(=O)[C@H](CCCCN)NC(=O)[C@H](CC(C)C)NC(=O)CNC(=O)[C@@H](NC(=O)[C@H](CCCCN)NC(=O)[C@H](CC(C)C)NC(=O)[C@H](CC(C)C)NC(=O)[C@H](CO)NC(=O)CNC(=O)[C@H](CC(C)C)NC(=O)[C@H](Cc1ccccc1)NC(=O)CN)[C@@H](C)O)C(C)C)C(N)=O [GFLGSLLKTGLKVGSNLL] was run?
The MIC was 5 µM (≈ 9.08 µg/mL).

What about the MIC [3] of the same compound?
The MIC was 5 µM (≈ 9.08 µg/mL).

And the MIC [4]?
The MIC was no less than 50 µM.

And the MIC [5]?
The MIC was 50 µM (≈ 90.8 µg/mL).

What about the MIC [6] of the same compound?
The MIC was no less than 100 µM.

And the MIC [7]?
Its MIC is 5 µM (≈ 9.08 µg/mL).

And the MIC [8]?
The MIC was no less than 80 µM.

And the MIC [9]?
The MIC was 5 µM (≈ 9.08 µg/mL).

What about the MIC [10] of the same compound?
Its MIC is 6 µM (≈ 10.9 µg/mL).

What about the MIC [11] of the same compound?
Its MIC is 50 µM (≈ 90.8 µg/mL).

And the MIC [12]?
The MIC was 50 µM (≈ 90.8 µg/mL).

What about the MIC [13] of the same compound?
The MIC was 5 µM (≈ 9.08 µg/mL).

And the MIC [14]?
Its MIC is 5 µM (≈ 9.08 µg/mL).

How did the MIC [15] turn out when CC[C@H](C)[C@H](NC(=O)[C@H](CCCN=C(N)N)NC(=O)[C@@H](NC(=O)[C@@H](NC(=O)[C@@H]1CCCN1C(=O)[C@@H](NC(=O)[C@@H](NC(=O)[C@@H](NC(=O)[C@@H]1CCCN1C(=O)CNC(=O)[C@H](Cc1ccc(O)cc1)NC(=O)[C@H](CCCCN)NC(=O)[C@H](CCCCN)NC(=O)[C@H](Cc1c[nH]c2ccccc12)NC(=O)[C@H](C)NC(=O)[C@H](CCCN=C(N)N)NC(=O)[C@H](CC(C)C)NC(=O)[C@@H](NC(=O)[C@H](CCCCN)NC(=O)[C@H](CCCN=C(N)N)NC(=O)CNC(=O)[C@H](CC(C)C)NC(=O)[C@H](CO)NC(=O)[C@H](CCCN=C(N)N)NC(=O)[C@H](CC(C)C)NC(=O)CNC(=O)CN)[C@@H](C)CC)[C@@H](C)CC)[C@@H](C)CC)C(C)C)[C@@H](C)CC)[C@@H](C)CC)C(=O)NCC(N)=O [GGLRSLGRKILRAWKKYGPIIVPIIRIG] was run?
The MIC was 2 µM (≈ 6.26 µg/mL).

And the MIC [16]?
Its MIC is 1 µM (≈ 3.13 µg/mL).

And the MIC (Candida albicans)?
Its MIC is 8 µM (≈ 25 µg/mL).

And the MIC (Bacillus megaterium Bm11)?
The MIC was 2 µM (≈ 6.26 µg/mL).

And the MIC [17]?
The MIC was 2 µM (≈ 6.26 µg/mL).

And the MIC (Cryptococcus neoformans)?
Its MIC is 4 µM (≈ 12.5 µg/mL).

What about the MIC (Escherichia coli D21) of the same compound?
The MIC was 0.5 µM (≈ 1.57 µg/mL).

What about the MIC [5] of the same compound?
Its MIC is 2 µM (≈ 6.26 µg/mL).

And the MIC [18]?
Its MIC is 2 µM (≈ 6.26 µg/mL).

What about the MIC [19] of the same compound?
Its MIC is 1.6 µM (≈ 5.01 µg/mL).

What about the MIC [20] of the same compound?
Its MIC is 2.6 µM (≈ 8.14 µg/mL).

What about the MIC (Serratia marcescens) of the same compound?
Its MIC is 8 µM (≈ 25 µg/mL).

What about the MIC (Streptococcus agalactiae) of the same compound?
The MIC was 2.83 µM (≈ 8.86 µg/mL).

What about the MIC [12] of the same compound?
Its MIC is 2 µM and > 1 µM.

What about the MIC [21] of the same compound?
Its MIC is 3 µM (≈ 9.39 µg/mL).

And the MIC (Escherichia coli ML-35)?
Its MIC is 2 µM (≈ 6.26 µg/mL).

And the MIC (Staphylococcus aureus)?
The MIC was 2.83 µM (≈ 8.86 µg/mL).

And the MIC [22]?
The MIC was 2.4 µM (≈ 7.51 µg/mL).

What about the MIC (Enterococcus faecium) of the same compound?
Its MIC is 2.83 µM (≈ 8.86 µg/mL).

And the MIC [23]?
Its MIC is 1 µM (≈ 3.13 µg/mL).

And the MIC [24]?
The MIC was 1 µM (≈ 3.13 µg/mL).
